Results: publication PMC8382845, “High-content image-based analysis and proteomic profiling identifies Tau phosphorylation inhibitors in a human iPSC-derived glutamatergic neuronal model of tauopathy” (Scientific Reports, 2021)

Target: T1, GSK3α (Homo sapiens, UniProt P49840)
T1 construct: gene GSK3A
T1 sequence (P49840 2-483): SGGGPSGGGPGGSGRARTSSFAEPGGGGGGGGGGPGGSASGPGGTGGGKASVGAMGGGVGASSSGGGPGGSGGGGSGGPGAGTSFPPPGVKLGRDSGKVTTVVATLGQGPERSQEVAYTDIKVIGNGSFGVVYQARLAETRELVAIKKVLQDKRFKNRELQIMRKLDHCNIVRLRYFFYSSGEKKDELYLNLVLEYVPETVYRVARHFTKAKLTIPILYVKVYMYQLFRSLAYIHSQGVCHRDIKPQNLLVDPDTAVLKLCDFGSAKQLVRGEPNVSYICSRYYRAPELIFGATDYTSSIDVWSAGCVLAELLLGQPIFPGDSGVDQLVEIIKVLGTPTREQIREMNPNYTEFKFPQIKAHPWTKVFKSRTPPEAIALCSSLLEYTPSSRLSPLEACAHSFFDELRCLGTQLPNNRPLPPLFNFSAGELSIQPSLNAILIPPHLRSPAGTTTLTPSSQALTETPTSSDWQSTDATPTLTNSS

Cc1c[nH]c(-c2cnc(NCCNc3ccc(C#N)cn3)nc2-c2ccc(Cl)cc2Cl)n1 [CHIR-99021]
MIB-MS chemoproteomic competition (loss of kinase binding to inhibitor beads) af: This effect of CHIR-99021 was similar between the two GSK isoforms, GSK3α and GSK3β (Fig. 5C) in both NPC and neurons
